Assay results reported in ChEMBL document CHEMBL3885861, “Open TG-GATES”.

Species on record: Rattus norvegicus
Experiment: Open TG-GATES - Regimen: Daily Repeat
Assay type: toxicity, organism-based, Sprague-Dawley
Design: regimen Daily Repeat, gender Male, age 6 weeks
Details: in vivo, po, route gavage; for APTT / Bas / Eos / Fbg / Hb / Ht / Lym / MCH / MCHC / MCV / Mono / Neu / PT / Plat / RBC / Ret / WBC: tissue Blood; for KIDNEY_L / KIDNEY_R / KIDNEY_TOTAL: tissue Kidney; for LIVER: tissue Liver; for A/G / ALP / ALT / AST / BUN / CRE / Ca / Cl / DBIL / GLC / IP / K / LDH / Na / PL / RALB / TBIL / TC / TG / TP / gamma-GTP: tissue Plasma
[1] = 100 mg/kg, 72 h, dose level Middle, time 3 day
[2] = 100 mg/kg, […], dose level Middle, time 7 day
[3] = 100 mg/kg, […], dose level Middle, time 14 day
[4] = 100 mg/kg, […], dose level Middle, time 28 day
[5] = 300 mg/kg, 72 h, dose level High, time 3 day
[6] = 300 mg/kg, […], dose level High, time 7 day
[7] = 300 mg/kg, […], dose level High, time 14 day
[8] = 300 mg/kg, […], dose level High, time 28 day

## CCc1oc2ccccc2c1C(=O)c1cc(I)c(O)c(I)c1 [BENZIODARONE]
[1]
  TERMINAL_BW: 247.4 g
  APTT: 17.8 s
  Bas: 0%
  Eos: 0.8%
  Fbg: 228.6 mg/dL
  Hb: 13.9 g/dL
  Ht: 41.6%
  Lym: 80.4%
  MCH: 21.3 pg
  MCHC: 33.3%
  MCV: 63.9 fL
  Mono: 5.8%
  Neu: 12.4%
  PT: 11.4 s
  Plat: 123.9 x10_4/uL
  RBC: 651.4 x10_4/ul
  Ret: 6.4%
  WBC: 123 x10_2/uL
  KIDNEY_L: 1.1 g
  KIDNEY_R: 1.1 g
  KIDNEY_TOTAL: 2.3 g
  LIVER: 14.4 g
  A/G: 1.9
  ALP: 1104 IU/L
  ALT: 38.2 IU/L
  AST: 61 IU/L
  BUN: 17.6 mg/dL
  CRE: 0.5 mg/dL
  Ca: 10.8 mg/dL
  Cl: 103.4 meq/L
  DBIL: 0.038 mg/dL
  GLC: 196 mg/dL
  IP: 7.3 mg/dL
  K: 4.4 meq/L
  LDH: 112.6 IU/L
  Na: 140.6 meq/L
  PL: 148.4 mg/dL
  RALB: 3.8 g/dL
  TBIL: 0.3 mg/dL
  TC: 79 mg/dL
  TG: 66 mg/dL
  TP: 5.9 g/dL
  gamma-GTP: 2 IU/L
[2]
  TERMINAL_BW: 273.1 g
  APTT: 17.9 s
  Bas: 0%
  Eos: 1.2%
  Fbg: 241 mg/dL
  Hb: 14.1 g/dL
  Ht: 41.6%
  Lym: 78.6%
  MCH: 21.1 pg
  MCHC: 33.9%
  MCV: 62.5 fL
  Mono: 7.2%
  Neu: 13%
  PT: 11.7 s
  Plat: 139.6 x10_4/uL
  RBC: 666.6 x10_4/ul
  Ret: 3.8%
  WBC: 95.7 x10_2/uL
  KIDNEY_L: 1.2 g
  KIDNEY_R: 1.2 g
  KIDNEY_TOTAL: 2.4 g
  LIVER: 15.6 g
  A/G: 1.7
  ALP: 1041.8 IU/L
  ALT: 35 IU/L
  AST: 65.2 IU/L
  BUN: 20.6 mg/dL
  CRE: 0.6 mg/dL
  Ca: 11 mg/dL
  Cl: 103 meq/L
  DBIL: 0.03 mg/dL
  GLC: 184 mg/dL
  IP: 7.8 mg/dL
  K: 4.5 meq/L
  LDH: 119.8 IU/L
  Na: 140.6 meq/L
  PL: 153.4 mg/dL
  RALB: 3.8 g/dL
  TBIL: 0.3 mg/dL
  TC: 78.8 mg/dL
  TG: 87.2 mg/dL
  TP: 6.1 g/dL
  gamma-GTP: 1.6 IU/L
[3]
  TERMINAL_BW: 322 g
  APTT: 18.4 s
  Bas: 0%
  Eos: 0.8%
  Fbg: 229.4 mg/dL
  Hb: 14.3 g/dL
  Ht: 42.5%
  Lym: 85%
  MCH: 20.4 pg
  MCHC: 33.6%
  MCV: 60.7 fL
  Mono: 5.2%
  Neu: 9.2%
  PT: 11.8 s
  Plat: 122.8 x10_4/uL
  RBC: 700.6 x10_4/ul
  Ret: 2.5%
  WBC: 113.1 x10_2/uL
  KIDNEY_L: 1.2 g
  KIDNEY_R: 1.3 g
  KIDNEY_TOTAL: 2.5 g
  LIVER: 16.9 g
  A/G: 2
  ALP: 712.4 IU/L
  ALT: 34.2 IU/L
  AST: 61.6 IU/L
  BUN: 20.8 mg/dL
  CRE: 0.6 mg/dL
  Ca: 10.6 mg/dL
  Cl: 105.2 meq/L
  DBIL: 0.04 mg/dL
  GLC: 199 mg/dL
  IP: 6.9 mg/dL
  K: 4.4 meq/L
  LDH: 105 IU/L
  Na: 141 meq/L
  PL: 139.6 mg/dL
  RALB: 4 g/dL
  TBIL: 0.2 mg/dL
  TC: 73.8 mg/dL
  TG: 67.6 mg/dL
  TP: 6 g/dL
  gamma-GTP: 1.2 IU/L
[4]
  TERMINAL_BW: 412 g
  APTT: 18.9 s
  Bas: 0%
  Eos: 1.4%
  Fbg: 225 mg/dL
  Hb: 15.2 g/dL
  Ht: 45.2%
  Lym: 81.8%
  MCH: 19.5 pg
  MCHC: 33.7%
  MCV: 58 fL
  Mono: 6%
  Neu: 11.2%
  PT: 11.8 s
  Plat: 114.5 x10_4/uL
  RBC: 778.6 x10_4/ul
  Ret: 3.4%
  WBC: 123.7 x10_2/uL
  KIDNEY_L: 1.4 g
  KIDNEY_R: 1.5 g
  KIDNEY_TOTAL: 2.9 g
  LIVER: 21.8 g
  A/G: 1.7
  ALP: 685.6 IU/L
  ALT: 37 IU/L
  AST: 59.2 IU/L
  BUN: 22 mg/dL
  CRE: 0.7 mg/dL
  Ca: 10.7 mg/dL
  Cl: 103.6 meq/L
  DBIL: 0.012 mg/dL
  GLC: 195.4 mg/dL
  IP: 6.4 mg/dL
  K: 4.4 meq/L
  LDH: 96.6 IU/L
  Na: 140.6 meq/L
  PL: 159.6 mg/dL
  RALB: 4.1 g/dL
  TBIL: 0.3 mg/dL
  TC: 86.4 mg/dL
  TG: 78.6 mg/dL
  TP: 6.5 g/dL
  gamma-GTP: 1.2 IU/L
[5]
  TERMINAL_BW: 237.2 g
  APTT: 19.4 s
  Bas: 0%
  Eos: 1%
  Fbg: 220.8 mg/dL
  Hb: 13.6 g/dL
  Ht: 40.1%
  Lym: 70.4%
  MCH: 22 pg
  MCHC: 33.9%
  MCV: 64.7 fL
  Mono: 9%
  Neu: 20%
  PT: 11.8 s
  Plat: 119.8 x10_4/uL
  RBC: 619.2 x10_4/ul
  Ret: 7.3%
  WBC: 107.3 x10_2/uL
  KIDNEY_L: 1 g
  KIDNEY_R: 1 g
  KIDNEY_TOTAL: 2.1 g
  LIVER: 15.3 g
  A/G: 2
  ALP: 951 IU/L
  ALT: 42.6 IU/L
  AST: 69.6 IU/L
  BUN: 16.4 mg/dL
  CRE: 0.6 mg/dL
  Ca: 10.6 mg/dL
  Cl: 104.8 meq/L
  DBIL: 0.038 mg/dL
  GLC: 178.4 mg/dL
  IP: 7 mg/dL
  K: 4.3 meq/L
  LDH: 121.6 IU/L
  Na: 141.4 meq/L
  PL: 132.4 mg/dL
  RALB: 3.8 g/dL
  TBIL: 0.3 mg/dL
  TC: 74.2 mg/dL
  TG: 34.2 mg/dL
  TP: 5.7 g/dL
  gamma-GTP: 1.4 IU/L
[6]
  TERMINAL_BW: 277.5 g
  APTT: 18.6 s
  Bas: 0%
  Eos: 0.6%
  Fbg: 217 mg/dL
  Hb: 13.9 g/dL
  Ht: 40.9%
  Lym: 82.2%
  MCH: 21.5 pg
  MCHC: 33.9%
  MCV: 63.5 fL
  Mono: 6.8%
  Neu: 10.8%
  PT: 12 s
  Plat: 125.7 x10_4/uL
  RBC: 644 x10_4/ul
  Ret: 4.3%
  WBC: 103.8 x10_2/uL
  KIDNEY_L: 1.2 g
  KIDNEY_R: 1.2 g
  KIDNEY_TOTAL: 2.4 g
  LIVER: 17.5 g
  A/G: 2
  ALP: 932.2 IU/L
  ALT: 35 IU/L
  AST: 59.4 IU/L
  BUN: 19.2 mg/dL
  CRE: 0.6 mg/dL
  Ca: 10.9 mg/dL
  Cl: 104 meq/L
  DBIL: 0.03 mg/dL
  GLC: 190.8 mg/dL
  IP: 8 mg/dL
  K: 4.1 meq/L
  LDH: 99 IU/L
  Na: 140 meq/L
  PL: 133.2 mg/dL
  RALB: 3.9 g/dL
  TBIL: 0.2 mg/dL
  TC: 72.8 mg/dL
  TG: 47 mg/dL
  TP: 5.9 g/dL
  gamma-GTP: 1.6 IU/L
[7]
  TERMINAL_BW: 313.1 g
  APTT: 19.3 s
  Bas: 0%
  Eos: 1%
  Fbg: 211.8 mg/dL
  Hb: 14.4 g/dL
  Ht: 42.6%
  Lym: 82.8%
  MCH: 21.1 pg
  MCHC: 33.9%
  MCV: 62.1 fL
  Mono: 6%
  Neu: 10.8%
  PT: 12 s
  Plat: 116.1 x10_4/uL
  RBC: 685.4 x10_4/ul
  Ret: 2.8%
  WBC: 121 x10_2/uL
  KIDNEY_L: 1.2 g
  KIDNEY_R: 1.3 g
  KIDNEY_TOTAL: 2.5 g
  LIVER: 19.2 g
  A/G: 1.7
  ALP: 877 IU/L
  ALT: 36 IU/L
  AST: 63.2 IU/L
  BUN: 21.4 mg/dL
  CRE: 0.6 mg/dL
  Ca: 10.6 mg/dL
  Cl: 104.4 meq/L
  DBIL: 0.038 mg/dL
  GLC: 195.8 mg/dL
  IP: 6.7 mg/dL
  K: 4.1 meq/L
  LDH: 95.8 IU/L
  Na: 141.4 meq/L
  PL: 123.2 mg/dL
  RALB: 3.9 g/dL
  TBIL: 0.2 mg/dL
  TC: 64.2 mg/dL
  TG: 48.2 mg/dL
  TP: 6.2 g/dL
  gamma-GTP: 1.6 IU/L
[8]
  TERMINAL_BW: 377.5 g
  APTT: 20.8 s
  Bas: 0%
  Eos: 1.6%
  Fbg: 223 mg/dL
  Hb: 15 g/dL
  Ht: 44.3%
  Lym: 78.6%
  MCH: 19.6 pg
  MCHC: 33.9%
  MCV: 57.8 fL
  Mono: 7.4%
  Neu: 12.2%
  PT: 12.3 s
  Plat: 108.9 x10_4/uL
  RBC: 768.2 x10_4/ul
  Ret: 2.8%
  WBC: 122.3 x10_2/uL
  KIDNEY_L: 1.4 g
  KIDNEY_R: 1.4 g
  KIDNEY_TOTAL: 2.8 g
  LIVER: 21.4 g
  A/G: 1.8
  ALP: 700.6 IU/L
  ALT: 39.8 IU/L
  AST: 63.4 IU/L
  BUN: 23 mg/dL
  CRE: 0.7 mg/dL
  Ca: 10.5 mg/dL
  Cl: 106.4 meq/L
  DBIL: 0.022 mg/dL
  GLC: 192.6 mg/dL
  IP: 6.4 mg/dL
  K: 4.1 meq/L
  LDH: 106.2 IU/L
  Na: 140.8 meq/L
  PL: 133 mg/dL
  RALB: 4 g/dL
  TBIL: 0.2 mg/dL
  TC: 72 mg/dL
  TG: 43.6 mg/dL
  TP: 6.2 g/dL
  gamma-GTP: 1.6 IU/L
